Measurements as given in BindingDB's records for patent US20250171467 (Merck Sharp & Dohme, 2025).

Target: T1, Ceramide glucosyltransferase (Homo sapiens, UniProt Q16739)
T1 sequence (Q16739 whole entry): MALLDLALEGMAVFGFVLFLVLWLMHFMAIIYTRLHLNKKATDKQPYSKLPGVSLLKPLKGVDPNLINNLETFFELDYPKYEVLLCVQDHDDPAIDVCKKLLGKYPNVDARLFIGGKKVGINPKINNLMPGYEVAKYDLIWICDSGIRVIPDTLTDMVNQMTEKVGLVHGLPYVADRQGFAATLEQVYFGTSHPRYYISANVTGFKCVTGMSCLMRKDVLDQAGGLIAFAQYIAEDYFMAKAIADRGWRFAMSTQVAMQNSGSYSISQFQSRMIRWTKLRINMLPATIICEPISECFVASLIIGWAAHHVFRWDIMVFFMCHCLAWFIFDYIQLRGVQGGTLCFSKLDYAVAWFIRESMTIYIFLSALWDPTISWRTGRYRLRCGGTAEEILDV
Assay: UDP-Glo Glucosylceramide Synthase Biochemical Assay
Protocol: An aliquot of GCS enzyme (1.5 μg crude golgi preparation, total protein) and titrated test compound were aliquoted to each well and incubated for 30 minutes at room temperature. […] An equivalent volume of substrate mixture was then added to each well. Following a 20 h incubation at room temperature to allow for GCS turnover of substrate, an equal volume of UDP detection reagent (Promega) was added to each well and incubated for an additional 75 minutes at room temperature to simultaneously convert the accumulated UDP product into ATP and generate light in a luciferase reaction. The generated light was detected using a luminometer.

COc1ccc(-n2nc(C(=O)N3CCCN(CCF)CC3)c3c2CCOC3)cc1 [US20250171467, Compound 11] showed an EC50 of 12 µM.
